TGI data for 7 molecules are collected here from PubChem BioAssay (NCI).

Test systems include A549 NSCLC; COLO 205 colon; EKVX NSCLC; HCT-15 colon; HOP-62 NSCLC; HOP-92 NSCLC; LOX IMVI melanoma; MDA-MB-435; MDA-N; NCI-H226 lung; NCI/ADR-RES ovarian; SF-268 CNS; SK-MEL-2 melanoma; SK-MEL-5 melanoma; SNB-19 CNS; SNB-75 CNS; SR leukemia; SW-620 colon; TK-10 renal; U251 CNS.
Common to all, as to assay: inhibition of tumour cell growth, NCI panel, 48 h

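Following 48 hours of exposure in 96-well plates, responses at five concentrations were used to interpolate endpoints linearly. TGI marks complete inhibition of growth.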

On to `COc1cc(S(=O)(=O)Nc2ccc(-c3csc(N4C(=O)C(Cl)C4c4cccs4)n3)cc2)ccc1Cl` (stereo not drawn), for which the TGI with A549 NSCLC is more than 100 µM; in the assay on COLO 205 colon, more than 100 µM; with EKVX NSCLC, more than 100 µM; in the assay on HCT-15 colon, more than 100 µM; in the assay with HOP-62 NSCLC, more than 100 µM; in the assay with HOP-92 NSCLC it was 45.5 µM. In addition, the TGI in the assay with LOX IMVI melanoma is 5.15 µM; with MDA-MB-435, more than 100 µM; with MDA-N, more than 100 µM; in the assay on NCI-H226 lung, more than 100 µM; in the assay on NCI/ADR-RES ovarian it was more than 100 µM; in the assay on SF-268 CNS, more than 100 µM. The TGI with SK-MEL-2 melanoma is more than 100 µM; in the assay with SK-MEL-5 melanoma, more than 100 µM; with SNB-19 CNS, more than 100 µM; with SNB-75 CNS it was more than 100 µM; with SR leukemia, 91.5 µM; in the assay on SW-620 colon, more than 100 µM.

On to `C[n+]1ccccc1/C1=c2\cc/c([nH]2)=C(\c2cccc[n+]2C)C2=N/C(=C(/c3cccc[n+]3C)C3C=CC(N3)/C(c3cccc[n+]3C)=C3/C=CC1=N3)C=C2`, for which the TGI with A549 NSCLC, with COLO 205 colon, in the assay with EKVX NSCLC, with HCT-15 colon, in the assay on HOP-62 NSCLC and in the assay on HOP-92 NSCLC was more than 100 µM in each case. Moreover, the TGI in the assay with LOX IMVI melanoma, with MDA-MB-435, in the assay on MDA-N, in the assay on NCI-H226 lung, in the assay with NCI/ADR-RES ovarian and with SF-268 CNS was more than 100 µM in each case. In addition, the TGI in the assay on SK-MEL-2 melanoma, in the assay on SK-MEL-5 melanoma, in the assay on SNB-19 CNS, in the assay with SR leukemia, with SW-620 colon and with TK-10 renal was more than 100 µM in each case. Further, the TGI in the assay on U251 CNS is more than 100 µM.

On to `Cc1cc(NS(=O)(=O)c2ccc(Nc3c4ccccc4nc4c(C(=O)NCCO)cccc34)cc2)no1`, for which the TGI in the assay with A549 NSCLC, in the assay with COLO 205 colon, with EKVX NSCLC, with HCT-15 colon, with HOP-62 NSCLC and in the assay with HOP-92 NSCLC was more than 100 µM in each case. Moreover, the TGI was more than 100 µM in the assay with LOX IMVI melanoma; more than 100 µM in the assay with MDA-MB-435; more than 100 µM in the assay with MDA-N; more than 100 µM in the assay on NCI/ADR-RES ovarian; more than 100 µM in the assay with SF-268 CNS; 74 µM in the assay on SK-MEL-2 melanoma. The TGI in the assay on SK-MEL-5 melanoma is more than 100 µM; in the assay on SNB-19 CNS, more than 100 µM; in the assay with SNB-75 CNS, 53.9 µM; in the assay with SR leukemia it was more than 100 µM; in the assay on SW-620 colon, 83.8 µM; in the assay with TK-10 renal, more than 100 µM. In the assay on U251 CNS, this molecule yielded a TGI of more than 100 µM.

`C1=NCCOCCN=Cc2ccc(cc2)OCc2cccc(n2)COc2ccc1cc2`: the TGI in the assay on A549 NSCLC, in the assay with COLO 205 colon, in the assay with EKVX NSCLC, in the assay with HCT-15 colon, in the assay on HOP-62 NSCLC and with HOP-92 NSCLC was more than 100 µM in each case. The TGI in the assay on MDA-MB-435, in the assay on MDA-N, in the assay on NCI-H226 lung, in the assay on NCI/ADR-RES ovarian, with SF-268 CNS and in the assay on SK-MEL-2 melanoma was more than 100 µM in each case. The TGI in the assay with SNB-19 CNS, with SNB-75 CNS, in the assay with SR leukemia, in the assay on SW-620 colon, with TK-10 renal and in the assay on U251 CNS was more than 100 µM in each case.

In the case of `CCC(=O)Nc1ccc(NCC(=O)Nc2ccc(OC)cc2)cc1`, the TGI with A549 NSCLC was more than 100 µM; in the assay with COLO 205 colon, more than 100 µM; in the assay with EKVX NSCLC, 70.7 µM; in the assay with HCT-15 colon, more than 100 µM; in the assay with HOP-62 NSCLC, 11.6 µM; with HOP-92 NSCLC, 66.3 µM. The TGI in the assay with LOX IMVI melanoma is 39.3 µM; in the assay with MDA-MB-435, more than 100 µM; with MDA-N, more than 100 µM; in the assay on NCI-H226 lung, 37.7 µM; with NCI/ADR-RES ovarian it was 85.7 µM; with SF-268 CNS, 39.7 µM. Also, the TGI in the assay on SK-MEL-2 melanoma is 38.5 µM; in the assay on SK-MEL-5 melanoma it was 32.7 µM; in the assay with SNB-19 CNS, 31.3 µM; in the assay with SNB-75 CNS, 34.3 µM; in the assay with SR leukemia, more than 100 µM; in the assay with SW-620 colon, more than 100 µM.

For the molecule `COc1ccc(CCN2C(=O)CC34C=CC(CC3C2=O)O4)cc1OC` (stereo not drawn), the TGI in the assay with A549 NSCLC, in the assay with COLO 205 colon, in the assay on EKVX NSCLC, in the assay with HCT-15 colon, in the assay with HOP-62 NSCLC and with HOP-92 NSCLC was more than 100 µM each time. In addition, the TGI in the assay on LOX IMVI melanoma, in the assay on MDA-MB-435, in the assay on MDA-N, with NCI/ADR-RES ovarian, in the assay with SK-MEL-2 melanoma and in the assay on SK-MEL-5 melanoma was more than 100 µM throughout. The TGI in the assay on SNB-19 CNS, in the assay on SR leukemia, with SW-620 colon, with TK-10 renal and in the assay with U251 CNS was more than 100 µM throughout.

For the molecule `CC(C)=C[C@@H]1O[C@H](O)[C@@H]([C@H]2CC[C@@]3(C)[C@@H]4CC[C@H]5C(C)(C)C(=O)CC[C@@]56C[C@@]46CC[C@]23C)[C@@H]1O`, the TGI in the assay with A549 NSCLC is 28.7 µM; in the assay with COLO 205 colon, 43.3 µM; with EKVX NSCLC, 33 µM; in the assay on HCT-15 colon, 36.1 µM; in the assay with HOP-62 NSCLC, 62.2 µM; in the assay on HOP-92 NSCLC, 32 µM. For the same molecule, the TGI was 41.7 µM in the assay on MDA-MB-435; 31.3 µM in the assay with MDA-N; 24.6 µM in the assay on NCI-H226 lung; 35.6 µM with NCI/ADR-RES ovarian; 39.4 µM in the assay on SF-268 CNS; 42.2 µM in the assay on SK-MEL-2 melanoma. For the same molecule, the TGI in the assay on SK-MEL-5 melanoma was determined as 41.8 µM; in the assay with SNB-19 CNS, 39.1 µM; in the assay with SNB-75 CNS it was 32.5 µM; with SR leukemia, 25.8 µM; in the assay on SW-620 colon it was 29.7 µM; in the assay with TK-10 renal it was 30.1 µM. This molecule also had a TGI with U251 CNS of 34.8 µM.
